The values below come from patent US20250099488A1, “ANTI-PARASITE COMPOUNDS” (AUSTRALIAN NATIONAL UNIVERSITY, priority 2022, published 2025).

In one data set the test system is asexual P. falciparum. Nature of the data set: Plasmodium growth inhibition assay (SYBR Safe), asexual stages. In kind it is cell-based, Plasmodium falciparum. The conditions noted are these: for pIC50: read-out: IC50; for Inhibitory effect on proliferation of asexual stages: FIG. 11D, cholesterol in ethanol, DMSO or ethyl acetate, DHEA. The protocol:
Compounds or solvent controls (DMSO, ethanol, or ethyl acetate) were serially diluted 2-fold across flat-bottom 96-well plates. Complete culture media without compound was used as a negative control. Chloroquine (100-200 nM) {Sigma C6628} was used as a positive control to determine background fluorescence. The parasitaemia of a culture containing predominantly ring stage parasites was counted by Giemsa smear. The parasitaemia was adjusted to 1% by addition of fresh uRBCs, and added to the plate at a final haematocrit of 1%, with 200 μL per well. The plates were incubated at 37° C. under humid microaerophilic conditions. […] Fluorescence was read at 490 nm excitation/520 nm emission on a FLUOstar Optima fluorescence plate reader {BMG Labtech}.
Growth inhibition data were normalised by subtracting background fluorescence from a no-growth control (high drug concentration or time=0 measurement as specified), and expressed as a percentage of the growth in the negative control (media alone or solvent control) either at the indicated timepoint, or to the highest measurement reached during the assay.
P. falciparum asexual parasite assays begun with ring-stage parasites at 1% parasitaemia and 1% haematocrit. 200 nM chloroquine (Sigma C6628) was used as a no-growth control. […] 17]; 8 (2):e54974).
(§1) Growth inhibition data were normalised by subtracting background fluorescence, luminescence, absorbance, or percentage of cells from a no-growth or no-viability control (high drug concentration, no-parasite control, or time=0 measurement as specified), and expressed as a percentage of the growth or cell percentage in the negative control (culture media alone or solvent control) at the indicated timepoint (or to the highest measurement reached during the assay for FIG. 15B).

The nature of data set [1]: HEK293 cell viability assay (MTT). The data set is classed as cell-based, human. To be noted: human, HEK293 cells; 96 hours, FIG. 16H / FIG. 18C; read-out: IC50, HEK293 cytotoxicity. The protocol:
HEK293 cell viability assays began with 5000 cells per well. 10 μg/mL cycloheximide was used as a no-growth control. Metabolic capacity (indicating viability) was measured by incubation with 0.45 mg/mL methylthiazolyldiphenyl-tetrazolium bromide (MTT; Sigma M2128) for two hours followed by crystal solubilisation in SDS.

Data set [2] concerns P. falciparum gametocytes (stage III-IV). The experiment in a line: Gametocyte viability assay (MitoTracker, flow cytometry). In kind it is cell-based, Plasmodium falciparum. To be noted: Plasmodium falciparum; 48 hours of incubation, stage III-IV, FIG. 14C; read-out: IC50, gametocyte viability.
Text: Gametocyte assays begun eight days post-invasion (Stage III-IV).
as §1
(A flow cytometer gives signals particle by particle.)

Where [3] appears, read: Plasmodium falciparum, 24 hours, starting with ring-stage parasites, FIG. 14B.
Setting [4] is: Plasmodium falciparum, 72 hours, FIG. 18B.

pIC50: −log10 of the molar value. Where two headings read alike, the source gives them in different places.

Consider `Cc1ncc([N+](=O)[O-])n1CCOC(=O)CCC(=O)O[C@H]1CC[C@H]2[C@@H]3CC=C4C[C@@H](O)CC[C@]4(C)[C@H]3CC[C@]12C` [BC62D, 3β-Hydroxyandrost-5-en-17β-yl succinate-metronidazole diester], for which the pIC50 (commonly −log10 of the IC50, conventionally taken in molar units) in the data set on asexual P. falciparum (Plasmodium falciparum, Example 4, FIG. 20B) was 4.62.

As for `CC(C)CCC[C@@H](C)[C@H]1CC[C@H]2[C@@H]3CC=C4C[C@@H](OC(=O)CCC(=O)OC(C)C)CC[C@]4(C)[C@H]3CC[C@]12C` [C-3-link, 3β-Succinate-(propan-2-yldiester)-cholest-5-ene], the “No inhibition of parasite growth up to (concentration)” value in the data set with asexual P. falciparum (24 hours) was > 200 µM. Moreover, the pIC50 with asexual P. falciparum (setting [3]) was < 3.70.

`COc1cc(NC(C)CCCNC(=O)CCC(=O)O[C@H]2CC[C@@]3(C)C(=CC[C@H]4[C@@H]5CC[C@H]([C@H](C)CCCC(C)C)[C@@]5(C)CC[C@@H]43)C2)c2ncccc2c1` (some centres unmarked) [C-3-prim, Cholester-3-yl succinate-primaquine amide]: the “No inhibition of parasite growth up to (concentration)” value in the data set on asexual P. falciparum (24 hours) is > 100 µM. Moreover, the pIC50 in the data set on asexual P. falciparum (setting [3]) was < 3.70.

On to `C[C@]12CC[C@H](O)CC1=CC[C@@H]1[C@@H]2CC[C@]2(C)C(=O)CC[C@@H]12` [DHEA, 3β-Hydroxyandrost-5-en-17-one, reference compound], for which the “Inhibitory effect on proliferation of asexual stages” value in the data set on asexual P. falciparum was “influences proliferation, although at relatively high concentrations”. In addition, in the data set on asexual P. falciparum (setting [4]), the pIC50 was 3.82. For `Cc1ncc([N+](=O)[O-])n1CCO` [Metronidazole, metronidazole, reference compound], in the data set with asexual P. falciparum (Example 4, FIG. 20B), the IC50 (commonly the concentration that gives 50% inhibition) is on record as “almost no effect in the range tested”.

In the case of `CC1CCC2C(C)C(OC(=O)CCC(=O)OC3CCC4C5CC=C6CC(O)CCC6(C)C5CCC34C)OC3OC4(C)CCC1C32OO4` (centres unmarked) [PAYb076a], the “Effect of steroid-artesunate conjugates on proliferation” value in the data set with asexual P. falciparum (72 hrs, FIG. 13B/13C) was “better activity than coupling via C3”. Take `CC(C)CCC[C@@H](C)[C@H]1CC[C@H]2[C@@H]3CC=C4C[C@@H](O)CC[C@]4(C)[C@H]3CC[C@]12C` [cholesterol, Cholesterol, reference compound]: in the data set with asexual P. falciparum, the “Inhibitory effect on proliferation of asexual stages” value is “No inhibitory effect could be detected in the concentration range being used”. Moreover, the pIC50 in the data set with asexual P. falciparum (setting [4]) is < 3.40. For `CC(C)(C)OOC(C)(C)C` [di-ter-butyl peroxide, di-tert-butyl peroxide, reference compound], the pIC50 in the data set on asexual P. falciparum (72 hours, FIG. 18B) was < 4.60.

As to `COc1cc(NC(C)CCCNC(=O)CCC(=O)OC(C)C)c2ncccc2c1` (centres unmarked) [prim-link, Propan-2-yl succinate-primaquine amide], the half-maximal inhibitory concentration (IC50) at 96 h in data set [1] came to 13.3 µM. Also, in data set [2], the pIC50 was < 4.00.
